Laboratory results: US20100305658A1 (priority 2004, published 2010)

Key:
[1] = test system: striatal dopamine efflux (dopamine oxidation current); test: STN stimulation-evoked striatal dopamine efflux, constant potential amperometry, effects of selective reuptake inhibitors; assay type: in vivo, rat; details: post-drug, 20 mg/kg systemic injection, STN stimulation 15 pulses, 50 Hz, 300 μA
[2] = test system: glutamate release in ferret thalamic slices (A1 lamina of the LGN); test: HFS-induced glutamate release in thalamic slices measured with a glutamate sensor; assay type: cell-based
GABAA receptors = test: Extracellular recording of spontaneous spindle waves in LGN slice with GABAA receptors blocked; assay type: cell-based; details: 20 μM in bath; ferret LGN slice; n=5 slices
Description: For the preparation of slices, 3-4 month old male or female ferrets (muftela putoriouf furo; Marshall Farms; North Rose, New York) were deeply anesthetized with sodium pentobarbital (30-40 mg/kg) and killed by decapitation. The forebrain was rapidly removed, and the hemispheres were separated with a midline incision. Four hundred micron thick slices were cut using a vibratome (Ted Pella, Inc.) in the sagittal plane. During preparation of slices, the tissue was placed in a solution (5° C.) in which NaCl was replaced with sucrose while maintaining an osmolarity of 307 mOsm to increase tissue viability. […]
Intracellular recording electrodes were formed on a Sutter Instruments P-2000 laser micropipette puller from medium-walled glass (WPI, 1B100F). […] The data was analyzed using Chart (eDaq) on a Pentium style computer and figures were drawn using Core1DRAW (Corel).
To test the functional effects of HFS-mediated glutamate release, simultaneous intracellular and extracellular recordings were made in the ferret lateral geniculate nucleus (LGN) in vitro slice preparation, which generates spontaneous spindle waves (FIG. 14; n=21). Spindle activity was recorded from a population of neurons (extracellular electrode), and the electrophysiological activity associated with the spindle activity was recorded from single neurons within that population. […]

CN1Cc2c(N)cccc2C(c2ccccc2)C1 (stereo not shown) [nomifensine]
recovery of dopamine efflux to prestimulation baseline levels (total duration) [1]: 2035 ± 132 ms
STN electrical stimulation-evoked dopamine oxidation current (amplitude) ([1]; anaesthetized rat striatum): 765±38 pA

NC1=N[C@H](O)[C@H]2[C@H]3O[C@]4(O)O[C@@H]([C@@H](O)[C@@]2(N1)[C@@H]4O)[C@]3(O)CO [tetrodotoxin]
block of glutamate release induced by HFS [2]: failed to block

picrotoxin
effect on spontaneous spindle waves (GABAA receptors): transformed into events that resemble absence-seizure-like activity
